According to ChEMBL document CHEMBL2074254, “Substrate specificity of sinusoidal bile acid and organic anion uptake systems in rat and human liver” (Hepatology, 1997):

The compounds below were run against T1, Hepatic sodium/bile acid cotransporter (Homo sapiens, UniProt Q14973) (assay: TP_TRANSPORTER: uptake in Xenopus laevis oocytes). Settings: oocyte.
T1 sequence (Q14973 whole entry): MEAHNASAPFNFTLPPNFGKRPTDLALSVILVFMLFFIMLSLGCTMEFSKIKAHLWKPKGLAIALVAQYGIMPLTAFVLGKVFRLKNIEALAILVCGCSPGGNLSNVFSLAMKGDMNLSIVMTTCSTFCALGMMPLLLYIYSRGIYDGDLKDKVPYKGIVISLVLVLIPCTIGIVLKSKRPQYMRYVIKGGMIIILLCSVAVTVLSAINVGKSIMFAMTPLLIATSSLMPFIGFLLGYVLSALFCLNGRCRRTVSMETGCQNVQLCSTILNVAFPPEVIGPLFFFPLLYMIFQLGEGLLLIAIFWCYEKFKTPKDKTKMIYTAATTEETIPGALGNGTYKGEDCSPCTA
Assay type: functional, cell-based

| Activity | Structure (SMILES) |
| --- | --- |
| substrate [+] | C[C@]12CC[C@@H]3c4ccc(OS(=O)(=O)O)cc4CC[C@H]3[C@@H]1CCC2=O [ESTRONE SULFURIC ACID] |
| substrate [+] | C[C@H](CCC(=O)NCC(=O)O)[C@H]1CC[C@H]2[C@@H]3[C@H](O)C[C@@H]4C[C@H](O)CC[C@]4(C)[C@H]3C[C@H](O)[C@]12C [GLYCOCHOLIC ACID] |
| substrate [+] | C[C@H](CCC(=O)NCCS(=O)(=O)O)[C@H]1CC[C@H]2[C@@H]3[C@@H](O)C[C@@H]4C[C@H](O)CC[C@]4(C)[C@H]3CC[C@]12C [TAURURSODIOL] |
| substrate [+] | C[C@H](CCC(=O)NCCS(=O)(=O)O)[C@H]1CC[C@H]2[C@@H]3[C@H](O)C[C@@H]4C[C@H](O)CC[C@]4(C)[C@H]3CC[C@]12C [TAUROCHENODEOXYCHOLATE] |

| Structure (SMILES) | Activity |
| --- | --- |
| O=C1OC(c2ccc(O)c(S(=O)(=O)[O-])c2)(c2ccc(O)c(S(=O)(=O)[O-])c2)c2c(Br)c(Br)c(Br)c(Br)c21.[Na+].[Na+] [SULFOBROMOPHTHALEIN SODIUM] | substrate [+] |
